Patent US20100040706A1, “METHOD OF ANTI-AGEING COSMETIC CARE BY STIMULATION OF SURVIVIN EXPRESSION” (LVMH RECHERCHE, priority 2008, published 2010)

Tested on: survivin
Assay: Survivin ELISA assay on normal human keratinocyte cultures, related to total proteins (BCA)
Type: cell-based
Settings: forskolin 4 μg/ml (10 μM)
Description: The normal human keratinocytes are cultured in 75 cm^2 flasks, in an incubator at 37° C. under a humid atmosphere containing 5% CO2, in serum-free keratinocyte medium supplemented with EGF (Epidermal Growth Factor) and with BPE (Bovine Pituitary Extract) (KSFMc) (Gibco ref: 17005-034+37000-015). The cells are seeded (day D0) into 48-well microplates in a proportion of 50 000 cells in 500 μL of medium per well. After incubation for 24 hours (day D1), the cells have become adherent and the treatment step is then carried out. The seeding medium is removed and the treatment medium containing the ingredients to be evaluated at the various concentrations, or the excipient thereof (for example DMSO) in the same proportion, is then added to each culture well. A peak of survivin expression by the cells is observed after treatment for 16 hours. The wells are then rinsed with PBS. Half the wells of the microplate are used to lyse the keratinocytes and to assay the intracellular survivin. […] The total proteins are assayed using a BCA colorimetric test (reference: BC Assay Kit, Uptima Interchim), by measuring absorbance at 570 nm. […] After the enzyme reaction has been blocked with sulfuric acid, the survivin is quantified by measuring absorbance at 450 nm.

C=C[C@@]1(C)CC(=O)[C@]2(O)[C@@]3(C)[C@@H](O)CCC(C)(C)[C@@H]3[C@H](O)[C@H](OC(C)=O)[C@@]2(C)O1 [Forskolin, forskolin]
% activation (16 h, solvent control = 100%): 147.9% | Survivin (16 h treatment, normal human keratinocytes): 7.27 pg/mg proteins
